Experimental findings from patent US11426397B2, “Piperidinyl- and piperazinyl-substituted heteroaromatic carboxamides as modulators of GPR6” (TAKEDA PHARMACEUTICAL COMPANY LIMITED, priority 2017, dated 2022) are described below.

The experiment deals with T1, GPR6 receptor expressed in CHO-K1 cells (Homo sapiens, UniProt P46095).
T1 construct: expressed in transfected cells
The experiment in a line: In vitro inhibition of cAMP (EC50), cell-based HTRF cAMP assay. To be noted: inhibition of constitutive cAMP activity of GPR6 in CHO-K1 cells. A digest of the protocol: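 Cellular cAMP measured by Lance Ultra HTRF (Eu-cAMP tracer, ULight anti-cAMP), with EC50 fitted by four-parameter logistic. Test compounds sat on cells 45 min, 37 °C, in pH 7.4 Ringer's with 300 μM IBMX and 0.5% BSA; GPR6 in CHO-K1 induced beforehand by doxycycline, 2 μg/mL, 20 h.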
A general note: Time-resolved FRET reads energy transfer from a long-lived donor to a nearby acceptor.

T1 sequence (P46095 whole entry): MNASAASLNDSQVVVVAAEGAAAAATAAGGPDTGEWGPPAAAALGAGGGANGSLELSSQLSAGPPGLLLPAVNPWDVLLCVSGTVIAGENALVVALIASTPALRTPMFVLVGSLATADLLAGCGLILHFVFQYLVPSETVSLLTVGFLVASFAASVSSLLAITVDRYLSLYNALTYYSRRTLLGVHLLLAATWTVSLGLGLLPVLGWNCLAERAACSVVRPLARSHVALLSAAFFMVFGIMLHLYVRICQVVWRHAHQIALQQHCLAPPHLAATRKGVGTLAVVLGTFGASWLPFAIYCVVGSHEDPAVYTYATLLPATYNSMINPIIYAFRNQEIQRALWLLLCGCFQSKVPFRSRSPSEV

For `Cn1cccc(C(=O)Nc2cc(C#N)ccc2N2CCC(C(F)(F)c3cc(F)ccc3F)CC2)c1=O` [Example 88, N-(5-cyano-2-(4-((2,5-difluorophenyl)difluoromethyl)piperidin-1-yl)phenyl)-1-methyl-2-oxo-1,2-dihydropyridine-3-carboxamide], the “pEC50, in vitro inhibition of cAMP” value is 6.4.

For the compound `COc1ccc(C(=O)Nc2cc(C#N)ccc2N2CCC(Oc3ccc(F)cc3F)CC2)c(OC)c1` [Example 235, N-(5-cyano-2-(4-(2,4-difluorophenoxy)piperidin-1-yl)phenyl)-2,4-dimethoxybenzamide], the “pEC50, in vitro inhibition of cAMP” value stood at 7.1.

Turning to `COc1ccc(OC2CCN(c3ccc(S(C)(=O)=O)cc3NC(=O)c3cn(CF)nc3OC)CC2)c(F)c1` [Example 2, N-(2-(4-(2-fluoro-4-methoxyphenoxy)piperidin-1-yl)-5-(methylsulfonyl)phenyl)-1-(fluoromethyl)-3-methoxy-1H-pyrazole-4-carboxamide], the “pEC50, in vitro inhibition of cAMP” value is on record as 7.0. The figure for `Cn1c2c(cc(C(=O)Nc3cc(C#N)ccc3N3CCC(Oc4ccc(F)cc4F)CC3)c1=O)CCCC2` [Example 185] is 6.4. The figure for `Cc1cccc2ncc(C(=O)Nc3cc(C#N)ccc3N3CCC(Oc4ccc(F)cc4F)CC3)c(=O)n12` [Example 187, N-(5-cyano-2-(4-(2,4-difluorophenoxy)piperidin-1-yl)phenyl)-6-methyl-4-oxo-4H-pyrido[1,2-a]pyrimidine-3-carboxamide] is 6.6; for `N#Cc1cnc(N2CCC(Oc3ccc(F)cc3F)CC2)c(NC(=O)c2cnccc2O)c1` [Example 61] it is 6.4. The figure for `COc1nn(C)cc1C(=O)Nc1cc(C#N)cnc1N1CCN(Cc2c(F)cc(Cl)cc2F)CC1` [Example 174, N-(2-(4-(4-chloro-2,6-difluorobenzyl)piperazin-1-yl)-5-cyanopyridin-3-yl)-3-methoxy-1-methyl-1H-pyrazole-4-carboxamide] is 7.1; for `Cc1ccc(Cl)c(OC2CCN(c3ncc(C#N)cc3NC(=O)c3ccccn3)CC2)c1` [Example 68, N-(2-(4-(2-chloro-5-methylphenoxy)piperidin-1-yl)-5-cyanopyridin-3-yl)picolinamide] it is 6.6. Consider `COc1ccc(C(=O)C2CCN(c3ccc(C#N)cc3NC(=O)c3cccn(C)c3=O)CC2)c(F)c1` [Example 81, N-(5-cyano-2-(4-(2-fluoro-4-methoxybenzoyl)piperidin-1-yl)phenyl)-1-methyl-2-oxo-1,2-dihydropyridine-3-carboxamide], for which the “pEC50, in vitro inhibition of cAMP” value came out at 6.9. Turning to `COc1nccnc1C(=O)Nc1cc(C#N)ccc1N1CCC(Oc2ccc(F)cc2F)CC1` [Example 94, N-(5-cyano-2-(4-(2,4-difluorophenoxy)piperidin-1-yl)phenyl)-3-methoxypyrazine-2-carboxamide], the “pEC50, in vitro inhibition of cAMP” value was below 5.7. The figure for `COc1nn(C)cc1C(=O)Nc1cc(C#N)cnc1N1CCN(Cc2cccc(F)c2OC)CC1` [Example 160, N-(5-cyano-2-(4-(3-fluoro-2-methoxybenzyl)piperazin-1-yl)pyridin-3-yl)-3-methoxy-1-methyl-1H-pyrazole-4-carboxamide] is 6.5. Consider `COc1nn(C)cc1C(=O)Nc1cc(C#N)ncc1N1CCN(Cc2cc(F)c(F)c(F)c2)CC1` [Example 267, N-(2-cyano-5-(4-(3,4,5-trifluorobenzyl)piperazin-1-yl)pyridin-4-yl)-3-methoxy-1-methyl-1H-pyrazole-4-carboxamide], for which the “pEC50, in vitro inhibition of cAMP” value amounted to 6.4. Next, `COc1cc(F)ccc1C(=O)Nc1cc(C#N)cnc1N1CCC(Oc2ccc(F)cc2F)CC1` [Example 56, N-(5-cyano-2-(4-(2,4-difluorobenoxy)piperidin-1-yl)pyridin-3-yl)-4-fluoro-2-methoxybenzamide]: 7.2; `COCc1cc(N2CCC(Oc3ccc(F)cc3F)CC2)c(NC(=O)c2cccnc2OC)cn1` [Example 268]: 6.9.

Turning to `N#Cc1ccc(N2CCC(Oc3ccc(F)cc3F)CC2)c(NC(=O)c2cc3n(n2)CCC3)c1` [Example 107, N-(5-cyano-2-(4-(2,4-difluorophenoxy)piperidin-1-yl)phenyl)-5,6-dihydro-4H-pyrrolo[1,2-b]pyrazole-2-carboxamide], the “pEC50, in vitro inhibition of cAMP” value was 6.6. Next, `COc1nc2c(cc1C(=O)Nc1cc(C#N)ccc1N1CCC(Oc3ccc(F)cc3F)CC1)CCC2` [Example 196, N-(5-cyano-2-(4-(2,4-difluorophenoxy)piperidin-1-yl)phenyl)-2-methoxy-6,7-dihydro-5H-cyclopenta[b]pyridine-3-carboxamide]: 6.7. Next, `Cn1cccc(C(=O)Nc2cc(C#N)ccc2N2CCC(Oc3cc(F)ccc3F)CC2)c1=O` [Example 15, N-(5-cyano-2-(4-(2,5-difluorophenoxy)piperidin-1-yl)phenyl)-1-methyl-2-oxo-1,2-dihydropyridine-3-carboxamide]: 7.1; `CCNC(=O)c1cc(N2CCC(Oc3ccc(F)cc3F)CC2)c(NC(=O)c2cccnc2OC)cn1` [Example 252, 4-(4-(2,4-difluorophenoxy)piperidin-1-yl)-N-ethyl-5-(2-methoxynicotinamido)picolinamide]: 7.0; `Cc1ccc(SC2CCN(c3ncc(C#N)cc3NC(=O)c3ccccn3)CC2)cc1` [Example 69, N-(5-cyano-2-(4-(p-tolylthio)piperidin-1-yl)pyridin-3-yl)picolinamide]: 6.7. Next, `Cn1cccc(C(=O)Nc2cc(C#N)ccc2N2CCC(Oc3cc(F)cnc3F)CC2)c1=O` [Example 292, N-(5-cyano-2-(4-((2,5-difluoropyridin-3-yl)oxy)piperidin-1-yl)phenyl)-1-methyl-2-oxo-1,2-dihydropyridine-3-carboxamide]: 6.6. Take `N#Cc1ccc(N2CCC(Oc3ccc(F)cc3F)CC2)c(NC(=O)c2ccccc2O)c1` [Example 275, N-(5-cyano-2-(4-(2,4-difluorophenoxy)piperidin-1-yl)phenyl)-2-hydroxybenzamide]: the “pEC50, in vitro inhibition of cAMP” value came out at 6.5. Next, `COc1ccc(Br)cc1C(=O)Nc1cc(C#N)ccc1N1CCC(Oc2ccc(F)cc2F)CC1` [Example 225, 5-bromo-N-(5-cyano-2-(4-(2,4-difluorophenoxy)piperidin-1-yl)phenyl)-2-methoxybenzamide]: 6.4. In the case of `COc1nn(C)cc1C(=O)Nc1cc(C#N)cnc1N1CCN(Cc2cc(C#N)ccc2F)CC1` [Example 151, N-(5-cyano-2-(4-(5-cyano-2-fluorobenzyl)piperazin-1-yl)pyridin-3-yl)-3-methoxy-1-methyl-1H-pyrazole-4-carboxamide], the “pEC50, in vitro inhibition of cAMP” value is 6.3.

As to `N#Cc1ccc(N2CCC(Oc3ccc(F)cc3F)CC2)c(NC(=O)c2cccn(Cc3ccccn3)c2=O)c1` [Example 203, N-(5-cyano-2-(4-(2,4-difluorophenoxy)piperidin-1-yl)phenyl)-2-oxo-1-(pyridin-2-ylmethyl)-1,2-dihydropyridine-3-carboxamide], the “pEC50, in vitro inhibition of cAMP” value was determined as 5.6. The figure for `COc1ccncc1C(=O)Nc1cnc(C)cc1N1CCC(Oc2ccc(F)cc2F)CC1` [Example 263] is 7.1; for `Cc1cn2c(=O)c(C(=O)Nc3cc(C#N)ccc3N3CCC(Oc4ccc(F)cc4F)CC3)cnc2s1` [Example 217, N-(5-cyano-2-(4-(2,4-difluorophenoxy)piperidin-1-yl)phenyl)-2-methyl-5-oxo-5H-thiazolo[3,2-a]pyrimidine-6-carboxamide] it is 6.7. The figure for `COc1ncccc1C(=O)Nc1cc(C#N)ccc1N1CCN(Cc2ccc(F)cc2C#N)CC1` [Example 291, N-(5-cyano-2-(4-(2-cyano-4-fluorobenzyl)piperazin-1-yl)phenyl)-2-methoxynicotinamide] is 6.9. Next, `N#Cc1ccc(N2CCC(Oc3ccc(F)cc3F)CC2)c(NC(=O)c2cocn2)c1` [Example 122, N-(5-cyano-2-(4-(2,4-difluorophenoxy)piperidin-1-yl)phenyl)oxazole-4-carboxamide]: 6.1. For `N#Cc1ccc(N2CCC(Oc3ccc(F)cc3F)CC2)c(NC(=O)c2cccnn2)c1` [Example 126, N-(5-cyano-2-(4-(2,4-difluorophenoxy)piperidin-1-yl)phenyl)pyridazine-3-carboxamide], the “pEC50, in vitro inhibition of cAMP” value stood at 6.3. The figure for `COc1ncncc1C(=O)Nc1cc(C#N)ccc1N1CCC(Oc2ccc(F)cc2F)CC1` [Example 37, N-(5-cyano-2-(4-(2,4-difluorophenoxy)piperidin-1-yl)phenyl)-4-methoxypyrimidine-5-carboxamide] is 7.1; for `Cn1cccc(C(=O)Nc2cc(C#N)ccc2N2CCC(C(=O)c3cc(Cl)ccc3F)CC2)c1=O` [Example 83] it is 6.9; for `N#Cc1cnc(N2CCC(Oc3ccc(F)cc3F)CC2)c(NC(=O)c2ccccn2)c1` [Example 66, N-(5-cyano-2-(4-(2,4-difluorophenoxy)piperidin-1-yl)pyridin-3-yl)picolinamide] it is 7.3. Next, `COc1ncccc1C(=O)Nc1cnc(C(=O)NC(C)C)cc1N1CCC(Oc2ccc(F)cc2F)CC1` [Example 253, 4-(4-(2,4-difluorophenoxy)piperidin-1-yl)-N-isopropyl-5-(2-methoxynicotinamido)picolinamide]: 6.8; `N#Cc1ccc(N2CCC(Oc3ccc(F)cc3F)CC2)c(NC(=O)c2ncccc2F)c1` [Example 108, N-(5-cyano-2-(4-(2,4-difluorophenoxy)piperidin-1-yl)phenyl)-3-fluoropicolinamide]: 7.0.
